Experimental data from PubChem BioAssay AID334 (DTP/NCI, 2004).
Several values for one entry are separate records, joined by “and”; a condition that tells them apart may be missing. Identical values can stand only once. Inconclusive results and toxic doses are left out.

System: CD2F1 mice, intracerebral P388 leukemia, median survival T/C%
Experiment: NCI In Vivo Anticancer Drug Screen. Data for tumor model P388 Leukemia (intracerebral) in CD2F1 (CDF1) mice
Settings: endpoint: median survival time, higher = longer survival
Description: The antitumor activity of compounds was measured in mice bearing transplantable tumors. Survival or tumor size were measured and the results are expressed as the measurement made in the treated group (T) divided by the measurement made in the vehicle treated control group (C). The tumor model used in this assay is P388 Leukemia (intracerebral) in CD2F1 (CDF1) mice

[1] = dose: 32.0 mg/kg/injection, schedule: Q01DX005 (ip), vehicle: saline
[2] = dose: 128.0 mg/kg/injection, schedule: Q01DX005 (ip), vehicle: saline
[3] = dose: 50.0 mg/kg/injection, schedule: Q01DX009 (ip), vehicle: saline
[4] = dose: 100.0 mg/kg/injection, schedule: Q01DX009 (ip), vehicle: saline
[5] = dose: 200.0 mg/kg/injection, schedule: Q01DX009 (ip), vehicle: saline
[6] = dose: 8.0 mg/kg/injection, schedule: Q01DX009 (ip), vehicle: saline with Tween-80
[7] = dose: 16.0 mg/kg/injection, schedule: Q01DX009 (ip), vehicle: saline with Tween-80
[8] = dose: 32.0 mg/kg/injection, schedule: Q01DX009 (ip), vehicle: saline with Tween-80
[9] = dose: 128.0 mg/kg/injection, schedule: Q01DX009 (ip), vehicle: saline with Tween-80
[10] = dose: 256.0 mg/kg/injection, schedule: Q01DX009 (ip), vehicle: saline with Tween-80
[11] = dose: 512.0 mg/kg/injection, schedule: Q01DX009 (ip), vehicle: saline with Tween-80

SMILES: CN(Cc1cnc2nc(N)nc(N)c2n1)c1c(Cl)cc(C(=O)NC(CCC(=O)O)C(=O)O)cc1Cl (centres undefined)
- T/C (dose: 16.0 mg/kg/injection, schedule: Q01DX005 (ip), vehicle: saline): 115 % of control
- T/C [1]: 121 % of control
- T/C [2]: 86 % of control

SMILES: O=P1(NCCCl)OCCCN1CCCl (centres undefined)
- T/C (dose: 538.0 mg/kg/injection, schedule: Q01DX001 (ip), vehicle: saline): 153 % of control

SMILES: CC1(C)N=C(N)N=C(N)N1c1ccc(OCc2ccc(C(=O)Nc3cccc(S(=O)(=O)F)c3)cc2)c(Cl)c1
- T/C (dose: 50.0 mg/kg/injection, schedule: Q04DX003 (ip), vehicle: saline): 100 % of control
- T/C (dose: 100.0 mg/kg/injection, schedule: Q04DX003 (ip), vehicle: saline): 94 % of control
- T/C (dose: 200.0 mg/kg/injection, schedule: Q04DX003 (ip), vehicle: saline): 105 % of control
- T/C (dose: 400.0 mg/kg/injection, schedule: Q04DX003 (ip), vehicle: saline): 88 % of control

SMILES: NC(=O)c1csc(C2OC(CO)C(O)C2O)n1 (centres undefined)
- T/C (dose: 12.5 mg/kg/injection, schedule: Q01DX009 (ip), vehicle: saline): 105 % of control
- T/C (dose: 25.0 mg/kg/injection, schedule: Q01DX009 (ip), vehicle: saline): 121 % of control
- T/C [3]: 110 % of control
- T/C [4]: 119 % of control
- T/C [5]: 121 % of control
- T/C (dose: 800.0 mg/kg/injection, schedule: Q01DX009 (ip), vehicle: saline): 93 % of control

SMILES: CC1(C)N=C(N)N=C(N)N1c1ccc(CCC(=O)Nc2ccc(S(=O)(=O)F)cc2)cc1
- T/C [3]: 111 % of control
- T/C [4]: 100 % of control

SMILES: CN=S(=O)(OCCCCCOS(=O)(=NC)c1ccccc1)c1ccccc1 (centres undefined)
- T/C (dose: 6.25 mg/kg/injection, schedule: Q01DX009 (ip), vehicle: saline with Tween-80): 107 % of control
- T/C (dose: 12.5 mg/kg/injection, schedule: Q01DX009 (ip), vehicle: saline with Tween-80): 100 % of control
- T/C (dose: 25.0 mg/kg/injection, schedule: Q01DX009 (ip), vehicle: saline with Tween-80): 101 % of control
- T/C (dose: 50.0 mg/kg/injection, schedule: Q01DX009 (ip), vehicle: saline with Tween-80): 102 % of control
- T/C (dose: 100.0 mg/kg/injection, schedule: Q01DX009 (ip), vehicle: saline with Tween-80): 102 % of control

SMILES: COc1cc2c(c3c1c(=O)c1ccccc1n3C)C=CC(C)(C)O2
- T/C (dose: 128.0 mg/kg/injection, schedule: Q01DX005 (ip), vehicle: Klucel (hydroxypropylcellulose) (HPC)): 107 % of control
- T/C (dose: 256.0 mg/kg/injection, schedule: Q01DX005 (ip), vehicle: Klucel (hydroxypropylcellulose) (HPC)): 112 % of control
- T/C (dose: 512.0 mg/kg/injection, schedule: Q01DX005 (ip), vehicle: Klucel (hydroxypropylcellulose) (HPC)): 113 % of control

SMILES: CC/C(=C(/CC)c1ccc(O)cc1)c1ccc(O)cc1
- T/C [6]: 105 % of control
- T/C (dose: 8.0 mg/kg/injection, schedule: Q01DX009 (ip), vehicle: saline): 104 % of control
- T/C [7]: 106 % of control
- T/C (dose: 16.0 mg/kg/injection, schedule: Q01DX009 (ip), vehicle: saline): 107 % of control
- T/C [8]: 107 % of control
- T/C (dose: 32.0 mg/kg/injection, schedule: Q01DX009 (ip), vehicle: saline): 158 % of control
- T/C (dose: 64.0 mg/kg/injection, schedule: Q01DX009 (ip), vehicle: saline with Tween-80): 100 % of control
- T/C (dose: 64.0 mg/kg/injection, schedule: Q01DX009 (ip), vehicle: saline): 116 % of control
- T/C [9]: 115 % of control
- T/C (dose: 128.0 mg/kg/injection, schedule: Q01DX009 (ip), vehicle: saline): 90 % of control
- T/C [10]: 106 % of control
- T/C (dose: 256.0 mg/kg/injection, schedule: Q01DX009 (ip), vehicle: saline): 88 % of control
- T/C [11]: 86 % of control

SMILES: Nc1nc(F)nc2c1ncn2C1OC(COP(=O)(O)O)C(O)C1O (centres undefined)
- T/C (dose: 60.0 mg/kg/injection, schedule: Q01DX009 (ip), vehicle: saline): 102 % of control
- T/C (dose: 90.0 mg/kg/injection, schedule: Q01DX009 (ip), vehicle: saline): 111 % of control
- T/C (dose: 134.0 mg/kg/injection, schedule: Q01DX009 (ip), vehicle: saline): 119 % of control
- T/C [5]: 205 % of control

SMILES: CCCCCC(=O)O[C@]1(C(C)=O)CC[C@H]2[C@@H]3CCC4=CC(=O)CC[C@]4(C)[C@H]3CC[C@@]21C
- T/C (dose: 8.0 mg/kg/injection, schedule: Q01DX009 (ip), vehicle: Klucel (hydroxypropylcellulose) (HPC)): 118 % of control and 105 % of control
- T/C [6]: 535 % of control
- T/C (dose: 16.0 mg/kg/injection, schedule: Q01DX009 (ip), vehicle: Klucel (hydroxypropylcellulose) (HPC)): 100 % of control and 111 % of control
- T/C [7]: 100 % of control
- T/C (dose: 32.0 mg/kg/injection, schedule: Q01DX009 (ip), vehicle: Klucel (hydroxypropylcellulose) (HPC)): 118 % of control and 105 % of control
- T/C [8]: 98 % of control
- T/C (dose: 64.0 mg/kg/injection, schedule: Q01DX009 (ip), vehicle: Klucel (hydroxypropylcellulose) (HPC)): 102 % of control and 111 % of control
- T/C (dose: 128.0 mg/kg/injection, schedule: Q01DX009 (ip), vehicle: Klucel (hydroxypropylcellulose) (HPC)): 121 % of control and 100 % of control
- T/C [9]: 107 % of control
- T/C (dose: 256.0 mg/kg/injection, schedule: Q01DX009 (ip), vehicle: Klucel (hydroxypropylcellulose) (HPC)): 120 % of control and 110 % of control
- T/C [10]: 98 % of control
- T/C (dose: 512.0 mg/kg/injection, schedule: Q01DX009 (ip), vehicle: Klucel (hydroxypropylcellulose) (HPC)): 124 % of control and 105 % of control
- T/C [11]: 279 % of control

SMILES: COc1cccc2c1C(=O)c1c(O)c3c(c(O)c1C2=O)C[C@@](O)(C(=O)CO)C[C@@H]3OC1CC(N)C(O)C(C)O1 (some centres undefined)
- T/C (dose: 0.5 mg/kg/injection, schedule: Q01DX001 (ip), vehicle: saline): 89 % of control
- T/C (dose: 1.0 mg/kg/injection, schedule: Q01DX001 (ip), vehicle: saline): 98 % of control
- T/C (dose: 2.0 mg/kg/injection, schedule: Q01DX001 (ip), vehicle: saline): 94 % of control
- T/C (dose: 4.0 mg/kg/injection, schedule: Q01DX001 (ip), vehicle: saline): 90 % of control
- T/C (dose: 8.0 mg/kg/injection, schedule: Q01DX001 (ip), vehicle: saline): 80 % of control
- T/C (dose: 16.0 mg/kg/injection, schedule: Q01DX001 (ip), vehicle: saline): 91 % of control

SMILES: CN(C)c1nc(N(C)C)nc(N(C)C)n1
- T/C (dose: 100.0 mg/kg/injection, schedule: Q01DX005 (ip), vehicle: saline with Tween-80): 104 % of control
- T/C (dose: 100.0 mg/kg/injection, schedule: Q01DX005 (ip), vehicle: suspension in saline): 100 % of control
- T/C (dose: 200.0 mg/kg/injection, schedule: Q01DX005 (ip), vehicle: saline with Tween-80): 111 % of control
- T/C (dose: 200.0 mg/kg/injection, schedule: Q01DX005 (ip), vehicle: suspension in saline): 107 % of control
- T/C (dose: 400.0 mg/kg/injection, schedule: Q01DX005 (ip), vehicle: saline with Tween-80): 111 % of control
- T/C (dose: 400.0 mg/kg/injection, schedule: Q01DX005 (ip), vehicle: suspension in saline): 89 % of control

SMILES: CCCCCCCCCCCCCC(=O)OC12CC(C)C3(O)C(C=C(CO)C(O)C4(O)C(=O)C(C)=CC43)C1C2(C)C (centres undefined)
- T/C (dose: 62.5 micrograms/kg/injection, schedule: Q01DX009 (ip), vehicle: acetone): 103 % of control
- T/C (dose: 125.0 micrograms/kg/injection, schedule: Q01DX009 (ip), vehicle: acetone): 98 % of control
- T/C (dose: 250.0 micrograms/kg/injection, schedule: Q01DX009 (ip), vehicle: acetone): 88 % of control
- T/C (dose: 500.0 micrograms/kg/injection, schedule: Q01DX009 (ip), vehicle: acetone): 94 % of control

SMILES: CO[C@H]1C[C@@H]2CC[C@@H](C)[C@@](O)(O2)C(=O)C(=O)N2CCCC[C@H]2C(=O)O[C@H]([C@H](C)C[C@@H]2CC[C@@H](O)[C@H](OC)C2)CC(=O)[C@H](C)C=C(C)[C@@H](O)[C@@H](OC)C(=O)[C@H](C)C[C@H](C)/C=C/C=C/C=C1C
- T/C (dose: 400.0 mg/kg/injection, schedule: Q01DX009 (ip), vehicle: gum acacia): 107 % of control

SMILES: O=[N+]([O-])O.[Ga]
- T/C [1]: 111 % of control
- T/C (dose: 64.0 mg/kg/injection, schedule: Q01DX005 (ip), vehicle: saline): 111 % of control
- T/C [2]: 104 % of control
